The term CC50 denotes the concentration at which the toxic effect on the cells reaches its halfway point. The EC50 is the concentration giving half of the maximal effect. As a reminder, the inhibition is the relative decrease from the control value, in per cent.

Data set [1] concerns C2C12 cells. In words: C2C12 host cell cytotoxicity (cell ratio) in HCS assay. The note with it: for Selectivity Index: CC50 cell line (C2C12)/EC50 T. cruzi; for CC50: cell ratio, 72 h, read-out: C2C12 Cytotoxicity (CC50 ± SD). Type of data set: cell-based, Mouse. As to the method: (§1) For the evaluation of the activity against T. cruzi amastigotes, high-content screening (HCS) was designed. In summary, 100 μL of host C2C12 cells (ATCC) were seeded in clear bottom black 96-well plates at a density of 2.5 x 10^4 cells/mL (2.5 × 10^3 cells/well). […] The parasites were allowed to infect for a 24 hr period, after which compounds were added in a volume of 50 μL. […] After 72 hrs of compound incubation, the wells were fixed with 4% paraformaldehyde for 15 to 30 mins. The plates were then washed once with deionized water and stained with a solution of DAPI (3 μM) for 1 hour. Plates were imaged in an INCell 2000 (GE Healthcare) high-content analyser by taking 16 pictures per well at 20 X objective amplification. Images were analysed with INCell Developer software (GE Healthcare) using the segmentation of host cell nuclei and parasite kinetoplast DNA. The measurement output used was the average number of parasites per cell calculated by the ratio of host cell nuclei/parasite kinetoplast DNA.

Experiment in data set [2]: as above
Type of data set: cell-based, Mouse. The note with it: mouse, cell ratio, 72 h; read-out: C2C12 Cytotoxicity (CC50 ± SD). How it is done: as §1

Data set [3] relates to T. cruzi amastigotes. In words: High-content screening assay on intracellular T. cruzi amastigotes. Type of data set: cell-based, Trypanosoma cruzi. The following applies: for EC50: Y strain in C2C12 host cells, 72 h, read-out: Anti-T. cruzi Activity Amastigotes (EC50 ± SD). How it is done:
For the evaluation of the activity against T. cruzi amastigotes, high-content screening (HCS) was designed. In summary, 100 μL of host C2C12 cells (ATCC) were seeded in clear bottom black 96-well plates at a density of 2.5 x 10^4 cells/mL (2.5 × 10^3 cells/well). After 24 hrs, 50 μL of Y strain tissue culture-derived trypomastigotes were used to infect the host cells at a density of 7.5 x 10^5/mL (3.75 x 10^4 parasites/well). The parasites were allowed to infect for a 24 hr period, after which compounds were added in a volume of 50 μL. […] After 72 hrs of compound incubation, the wells were fixed with 4% paraformaldehyde for 15 to 30 mins. The plates were then washed once with deionized water and stained with a solution of DAPI (3 μM) for 1 hour. Plates were imaged in an INCell 2000 (GE Healthcare) high-content analyser by taking 16 pictures per well at 20 X objective amplification. Images were analysed with INCell Developer software (GE Healthcare) using the segmentation of host cell nuclei and parasite kinetoplast DNA. The measurement output used was the average number of parasites per cell calculated by the ratio of host cell nuclei/parasite kinetoplast DNA.
In this assay, the compounds are incubated for 72 hours with cells previously infected with wild-type trypomastigotes for 24 hours. The readout was done by comparing the average number of amastigotes per cell that developed by the end of the incubation period. The quality of the assay was statistically evaluated by the calculation of the z-factor [75], that represents the reliability of the assay in distinguishing positive controls confidently from negative controls. Varying from 0 to 1, z-factor values higher than 0.5 are considered acceptable for drug screening. The z-factor obtained was 0.68, validating the use of the assay (S3B Fig).

Data set [4] has as its target TcSir2rp1 (Trypanosoma cruzi, UniProt Q4DVL9). The data set is described as follows: TcSir2rp1 NAD+-dependent deacetylase fluorimetric assay (CycLex kit). Type of data set: biochemical. The note with it: for inhibition at 10 µM / Inhibition of NAD+-dependent deacetylase activity of TcSir2rp1: single dose 10 μM, 200 μM NAD+, 10 μM peptide. How it is done:
The deacetylase activity was measured using the commercial SIRT1/Sir2 Deacetylase Fluorometric Assay Kit (CycLex,Japan) according to the manufacturer’s recommendations. Briefly, fluorescence emission after digestion of deacetylated substrates by a lysine specific endopeptidase was measured in a fluorometric plate reader (Synergy HT, BioTek) with excitation and emission wavelengths set at 340 and 440 nm, respectively, every 30 seconds for 1 hour. The slope of the linear part of the reaction was calculated and used as readout of enzyme activity. […]
A variety of the bisnaphthalimidopropyl (BNIPs) derivatives, as well as the newly synthetized derivatives were evaluated as potential TcSir2rp1 inhibitors. The enzymatic reactions were performed using a commercially available CycLex SIRT1/Sir2 deacetylase fluorimetric kit (CycLex Co. Ltd., Nagano, Japan) in the absence and presence of the various inhibitors, 200 μM NAD^+ and 10 μM of peptide substrate as previously described.
A variety of the bisnaphthalimidopropyl (BNIPs) derivatives, as well as the newly synthetized derivatives were evaluated as potential TcSir2rp1 inhibitors. The enzymatic reactions were performed using a commercially available CycLex SIRT1/Sir2 deacetylase fluorimetric kit (CycLex Co. Ltd., Nagano, Japan) in the absence and presence of the various inhibitors, 200 µM NAD^+ and 10 µM of peptide substrate as previously described.

The target in data set [5] is T1, human SIRT1 (Homo sapiens, UniProt Q96EB6).
T1 sequence (Q96EB6 1-747): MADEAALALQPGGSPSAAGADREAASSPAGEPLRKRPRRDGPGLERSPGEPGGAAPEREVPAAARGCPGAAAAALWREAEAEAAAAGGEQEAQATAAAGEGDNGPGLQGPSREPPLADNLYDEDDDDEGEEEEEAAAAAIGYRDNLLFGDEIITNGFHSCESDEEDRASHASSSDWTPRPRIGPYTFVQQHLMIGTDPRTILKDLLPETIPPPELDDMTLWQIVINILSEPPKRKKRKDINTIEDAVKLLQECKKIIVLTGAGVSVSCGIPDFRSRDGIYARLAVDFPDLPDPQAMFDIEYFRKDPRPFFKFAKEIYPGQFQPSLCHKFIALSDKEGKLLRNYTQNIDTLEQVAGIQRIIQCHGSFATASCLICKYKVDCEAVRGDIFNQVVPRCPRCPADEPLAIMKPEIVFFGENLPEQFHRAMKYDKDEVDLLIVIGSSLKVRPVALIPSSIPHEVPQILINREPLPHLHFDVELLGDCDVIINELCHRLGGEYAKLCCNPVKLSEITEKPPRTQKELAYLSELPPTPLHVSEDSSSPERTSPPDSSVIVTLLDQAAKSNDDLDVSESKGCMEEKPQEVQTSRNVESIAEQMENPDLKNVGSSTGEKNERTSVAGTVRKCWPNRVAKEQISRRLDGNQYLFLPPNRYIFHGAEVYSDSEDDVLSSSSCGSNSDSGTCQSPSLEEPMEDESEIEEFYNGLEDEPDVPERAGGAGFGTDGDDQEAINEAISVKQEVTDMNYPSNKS
The data set is described as follows: hSIRT1 deacetylase inhibition (CycLex kit). The note with it: 10 µM, n=2, N.I. = no inhibition; for inhibition at 10 µM: read-out: hSIRT1 Inhibition at 10 µM (% ± SD). Type of data set: biochemical.

Data set [6] in a line: Solubility. The data set is classed as physicochemical. The following applies: limits the concentration tested.

Entries after “also recorded” stand apart in the source; their conditions may differ. Like-named read-outs stand apart in the source and are kept apart here. Where only a bound is given, the exact number is not on record here.

Sequence of TcSir2rp1 (Q4DVL9 entry or part of it): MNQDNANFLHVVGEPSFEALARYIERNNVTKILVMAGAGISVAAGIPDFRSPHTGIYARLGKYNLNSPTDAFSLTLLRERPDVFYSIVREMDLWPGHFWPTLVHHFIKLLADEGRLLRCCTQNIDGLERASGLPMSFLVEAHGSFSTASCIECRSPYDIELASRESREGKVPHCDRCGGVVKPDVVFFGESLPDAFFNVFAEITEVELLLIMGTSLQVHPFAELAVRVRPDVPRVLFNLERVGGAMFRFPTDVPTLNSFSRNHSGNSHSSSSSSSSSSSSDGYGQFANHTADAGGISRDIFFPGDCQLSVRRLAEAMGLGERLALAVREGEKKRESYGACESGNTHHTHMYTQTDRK

As for `O=C1c2cccc3cccc(c23)C(=O)N1CCCNCCCCNCCCN1C(=O)c2cccc3cccc(c23)C1=O` [Compound 1], the “Selectivity Index” value in data set [1] was found to be 1.7. Further, in data set [2], the 50% cytotoxic concentration (CC50) at 72 h came to 2910 ± 940 nM. In addition, the EC50 in data set [3] (Trypanosoma cruzi, C2C12, 72 h) was 1710 ± 230 nM.
Regarding `CC(/C=C/C(=O)NO)=C\[C@@H](C)C(=O)c1ccc(N(C)C)cc1` [trichostatin A, reference compound], in data set [4] (inhibitor at 1 μM), the “TcSir2rp1 deacetylase activity still displayed” value is 77 ± 8%.
`O=C1c2cccc3cccc(c23)C(=O)N1CCCNC1CCC(CC2CCC(NCCCN3C(=O)c4cccc5cccc(c45)C3=O)CC2)CC1` (stereo not shown) [Compound 6b]: the inhibition at 10 µM in data set [4] is 8 ± 5%; in data set [5], 44 ± 8%.
With `O=C1c2cccc3cccc(c23)C(=O)N1CCCNc1ccc(Cc2ccc(NCCCN3C(=O)c4cccc5cccc(c45)C3=O)cc2)cc1` [Compound 6c], the inhibition at 10 µM in data set [5] was found to be 8 ± 1%. The “Solubility in assay (qualitative)” value in data set [6] is “poor solubility”.
As to `C[N+]1(CCCN2C(=O)c3cccc4cccc(c34)C2=O)CCN(CCCN2C(=O)c3cccc4cccc(c34)C2=O)CC1` [Compound 12], the “Selectivity Index” value in data set [1] is on record as above 1.7. In addition, the CC50 at 72 h in data set [2] was above 50000 nM. In addition, the half-maximal effective concentration (EC50) in data set [3] (Trypanosoma cruzi, C2C12, 72 h) is 28700 ± 4090 nM. Further, in data set [5], the “hSIRT1 Inhibition at 10 µM (% ± SD)” value was “N.I”.
`O=C1c2cccc3cccc(c23)C(=O)N1CCCNC1CCC(NCCCN2C(=O)c3cccc4cccc(c34)C2=O)CC1` (stereo not shown) [Compound 1b]: in data set [1], the “Selectivity Index” value was above 3.2 and the CC50 is above 2500 nM. The EC50 in data set [3] was found to be 780 ± 120 nM. Moreover, the “hSIRT1 Inhibition at 10 µM (% ± SD)” value in data set [5] worked out at 3 ± 4%.
Turning to `O=C1c2cccc3c(Cl)ccc(c23)C(=O)N1CCCN1CCN(CCCN2C(=O)c3cccc4c(Cl)ccc(c34)C2=O)CC1` [Compound 13], the cytotoxic concentration (CC50) at 72 h in data set [2] was above 2500 nM. In addition, in data set [4], the inhibition at 20 µM was determined as 48 ± 6%, the “Inhibition of NAD+-dependent deacetylase activity of TcSir2rp1” value (“Inhibition … of TcSir2rp1” for short) was “statistically significant inhibition” and the inhibition at 10 µM is 50 ± 8%. Moreover, the “Inhibition of T. cruzi enzyme relative to hSIRT1, fold higher” value in data set [4] (both at 10 μM) was “at least 3 fold”. Moreover, in data set [3] (Trypanosoma cruzi, C2C12, 72 h), the EC50 was 590 ± 230 nM. The inhibition at 10 µM in data set [5] was 15 ± 4%. In data set [6], the “Solubility in assay (qualitative)” value is on record as “low solubility”.
In the case of `O=C1c2cccc3cccc(c23)C(=O)N1CCCNCCCN1CCN(CCCNCCCN2C(=O)c3cccc4cccc(c34)C2=O)CC1` [Compound 7a], in data set [1], the “Selectivity Index” value is 1.4. For the same compound, the CC50 at 72 h in data set [2] was 19300 ± 5640 nM. In addition, the EC50 in data set [3] (Trypanosoma cruzi, C2C12, 72 h) worked out at 13600 ± 2900 nM. Besides, the “hSIRT1 Inhibition at 10 µM (% ± SD)” value in data set [5] was “N.I”.
Regarding `O=C1c2cccc3cccc(c23)C(=O)N1CCCNc1ccc(NCCCN2C(=O)c3cccc4cccc(c34)C2=O)cc1` [Compound 1c], the “hSIRT1 Inhibition at 10 µM (% ± SD)” value in data set [5] is “N.I”.
For the compound `O=C1c2cccc3cccc(c23)C(=O)N1CCCNCCCCCCCCNCCCN1C(=O)c2cccc3cccc(c23)C1=O` [Compound 5], the “Inhibition … of TcSir2rp1” value in data set [4] is listed as “not active; also recorded: very little if any activity”. In addition, the “Activity against amastigotes (primary screening)” value in data set [3] (single dose screening) is “very little if any activity”.
Turning to `O=C1c2cccc3cccc(c23)C(=O)N1CCCNCCCCCCCCCCCCNCCCN1C(=O)c2cccc3cccc(c23)C1=O` [Compound 8], in data set [1], the “Selectivity Index” value is 1.3. For the same compound, in data set [2], the CC50 at 72 h was 1910 ± 60 nM. Further, in data set [4], the inhibition at 50 µM was 31 ± 9% and the “Inhibition … of TcSir2rp1” value is reported as “statistically significant inhibition”. Besides, in data set [3] (Trypanosoma cruzi, C2C12, 72 h), the concentration giving a half-maximal response (EC50) turned out to be 1430 ± 100 nM.
`O=C1c2cccc3cccc(c23)C(=O)N1CCCNCCOCCOCCNCCCN1C(=O)c2cccc3cccc(c23)C1=O` [Compound 9a]: in data set [1], the “Selectivity Index” value is reported as 2.1. Besides, the CC50 at 72 h in data set [2] came out at 7370 ± 650 nM. Besides, in data set [4], the inhibition at 50 µM turned out to be 29 ± 4%, the “Inhibition … of TcSir2rp1” value is reported as “statistically significant inhibition” and the inhibition at 10 µM was found to be 28 ± 13%. Also, the concentration for a half-maximal effect (EC50) in data set [3] (Trypanosoma cruzi, C2C12, 72 h) is 3430 ± 570 nM. Besides, in data set [5], the inhibition at 10 µM is 3 ± 4%.
`O=C1c2cccc3cccc(c23)C(=O)N1CCCN1CCC(CCCC2CCN(CCCN3C(=O)c4cccc5cccc(c45)C3=O)CC2)CC1` [Compound 6a]: the “Selectivity Index” value in data set [1] worked out at 2.0. Besides, the CC50 at 72 h in data set [2] is 2880 ± 120 nM. The 50% effective concentration (EC50) in data set [3] (Trypanosoma cruzi, C2C12, 72 h) was 1450 ± 300 nM. The inhibition at 10 µM in data set [5] was 3 ± 4%.
On to `O=C1c2cccc3cccc(c23)C(=O)N1CCCNC1CCC(NCCCN2C(=O)c3cccc4cccc(c34)C2=O)CC1` (stereo not shown) [Compound 1a], for which, in data set [1], the “Selectivity Index” value is 1.4 and the cytotoxic concentration (CC50) turned out to be 8740 ± 1140 nM. In data set [3], the concentration for a half-maximal effect (EC50) turned out to be 6090 ± 140 nM. In data set [5], the “hSIRT1 Inhibition at 10 µM (% ± SD)” value is 1 ± 1%.
As to `O=C1c2cccc3cccc(c23)C(=O)N1CCCNCCCNCCCCNCCCNCCCN1C(=O)c2cccc3cccc(c23)C1=O` [Compound 10], in data set [6], the “Solubility in assay (qualitative)” value is given as “poor solubility”.

The values above are taken from publication PMC5794198, “Inhibitors of Trypanosoma cruzi Sir2 related protein 1 as potential drugs against Chagas disease” (PLoS Neglected Tropical Diseases, 2018).
